Source: patent US9693556B2, “Herbicidal pyridazinone derivatives” (SYNGENTA LIMITED, priority 2011, dated 2017)

What was measured:
Type in all cases: in vivo
[1] = tested on: Amaranthus retoflexus (AMARE); test: Post-emergence herbicidal glasshouse test on Amaranthus retoflexus; settings: post-emergence; 1000 g/h; evaluated after 13 days
Procedure: (§1) Seeds of a variety of test species are sown in standard soil in pots (Alopecurus myosuroides (ALOMY), Setaria faberi (SETFA), Echinochloa crus-galli (ECHCG), Solanum nigrum (SOLNI), Amaranthus retoflexus (AMARE), Ipomoea hederacea (IPOHE)). After cultivation for one day (pre-emergence) or after 8 days cultivation (post-emergence) under controlled conditions in a glasshouse (at 24/16° C., day/night; 14 hours light; 65% humidity), the plants are sprayed with an aqueous spray solution derived from the formulation of the technical active ingredient in acetone/water (50:50) solution containing 0.5% Tween 20 (polyoxyethelyene sorbitan monolaurate, CAS RN 9005-64-5). Compounds are applied at 1000 g/h. The test plants are then grown in a glasshouse under controlled conditions in a glasshouse (at 24/16° C., day/night; 14 hours light; 65% humidity) and watered twice daily. After 13 days for pre and post-emergence, the test is evaluated for the percentage herbicidal damage caused to the plant. The biological activities are shown in the following table on a five point scale (5=80-100% damage; 4=60-79% damage; 3=40-59% damage; 2=20-39% damage; 1=0-19% damage).

[2] = tested on: Ipomoea hederacea (IPOHE); test: Pre-emergence herbicidal glasshouse test on Ipomoea hederacea; settings: pre-emergence; 1000 g/h; evaluated after 13 days
Procedure: as §1

[3] = tested on: Echinochloa crus-galli (ECHCG); test: Pre-emergence herbicidal glasshouse test on Echinochloa crus-galli; settings: pre-emergence; 1000 g/h; evaluated after 13 days
Procedure: as §1

Setaria faberi (SETFA) [4] = test: Pre-emergence herbicidal glasshouse test on Setaria faberi; settings: pre-emergence; 1000 g/h; evaluated after 13 days
Procedure: as §1

[5] = tested on: Alopecurus myosuroides (ALOMY); test: Pre-emergence herbicidal glasshouse test on Alopecurus myosuroides; settings: pre-emergence; 1000 g/h; evaluated after 13 days
Procedure: as §1

Setaria faberi (SETFA) [6] = test: Post-emergence herbicidal glasshouse test on Setaria faberi; settings: post-emergence; 1000 g/h; evaluated after 13 days
Procedure: as §1

[7] = tested on: Echinochloa crus-galli (ECHCG); test: Post-emergence herbicidal glasshouse test on Echinochloa crus-galli; settings: post-emergence; 1000 g/h; evaluated after 13 days
Procedure: as §1

[8] = tested on: Ipomoea hederacea (IPOHE); test: Post-emergence herbicidal glasshouse test on Ipomoea hederacea; settings: post-emergence; 1000 g/h; evaluated after 13 days
Procedure: as §1

Solanum nigrum (SOLNI) [9] = test: Pre-emergence herbicidal glasshouse test on Solanum nigrum; settings: pre-emergence; 1000 g/h; evaluated after 13 days
Procedure: as §1

[10] = tested on: Alopecurus myosuroides (ALOMY); test: Post-emergence herbicidal glasshouse test on Alopecurus myosuroides; settings: post-emergence; 1000 g/h; evaluated after 13 days
Procedure: as §1

[11] = tested on: Amaranthus retoflexus (AMARE); test: Pre-emergence herbicidal glasshouse test on Amaranthus retoflexus; settings: pre-emergence; 1000 g/h; evaluated after 13 days
Procedure: as §1

Solanum nigrum (SOLNI) [12] = test: Post-emergence herbicidal glasshouse test on Solanum nigrum; settings: post-emergence; 1000 g/h; evaluated after 13 days
Procedure: as §1

Row | SMILES | POST Application AMARE herbicidal damage (five point scale) [1] | PRE Application IPOHE herbicidal damage (five point scale) [2] | PRE Application ECHCG herbicidal damage (five point scale) [3] | PRE Application SETFA herbicidal damage (five point scale) (Setaria faberi (SETFA) [4]) | PRE Application ALOMY herbicidal damage (five point scale) [5] | POST Application SETFA herbicidal damage (five point scale) (Setaria faberi (SETFA) [6]) | POST Application ECHCG herbicidal damage (five point scale) [7] | POST Application IPOHE herbicidal damage (five point scale) [8] | PRE Application SOLNI herbicidal damage (five point scale) (Solanum nigrum (SOLNI) [9]) | POST Application ALOMY herbicidal damage (five point scale) [10] | PRE Application AMARE herbicidal damage (five point scale) [11] | POST Application SOLNI herbicidal damage (five point scale) (Solanum nigrum (SOLNI) [12])
1 | Cn1ncc(-c2ccc(C#N)cc2C(F)(F)F)c(O)c1=O [Compound 1.071] | 5 (5=80-100% damage) | 2 (2=20-39% damage) | 5 (5=80-100% damage) | 4 (4=60-79% damage) | 4 (4=60-79% damage) | 4 (4=60-79% damage) | 5 (5=80-100% damage) | 5 (5=80-100% damage) | 5 (5=80-100% damage) | 3 (3=40-59% damage) | 5 (5=80-100% damage) | 5 (5=80-100% damage)
2 | COc1c(Cl)ccc(-c2cnn(C)c(=O)c2O)c1F [Compound 1.063] | 3 (3=40-59% damage) | 1 (1=0-19% damage) | 1 (1=0-19% damage) | 1 (1=0-19% damage) | 1 (1=0-19% damage) | 1 (1=0-19% damage) | 1 (1=0-19% damage) | 3 (3=40-59% damage) | 1 (1=0-19% damage) | 1 (1=0-19% damage) | 1 (1=0-19% damage) | 2 (2=20-39% damage)
3 | Cn1ncc(-n2ccc(C(F)(F)F)c(-c3cc(Cl)cc(Cl)c3)c2=O)c(O)c1=O [Compound 7.022] | 5 (5=80-100% damage) | 2 (2=20-39% damage) | 5 (5=80-100% damage) | 5 (5=80-100% damage) | 5 (5=80-100% damage) | 5 (5=80-100% damage) | 5 (5=80-100% damage) | 2 (2=20-39% damage) | 5 (5=80-100% damage) | 4 (4=60-79% damage) | 5 (5=80-100% damage) | 5 (5=80-100% damage)
4 | C=Cc1nn(C)c(=O)c(O)c1-c1ccc(S(C)(=O)=O)c(C2=NOCC2)c1C [Compound 2.020] | 5 (5=80-100% damage) | 1 (1=0-19% damage) | 5 (5=80-100% damage) | 1 (1=0-19% damage) | 4 (4=60-79% damage) | 4 (4=60-79% damage) | 4 (4=60-79% damage) | 5 (5=80-100% damage) | 5 (5=80-100% damage) | 4 (4=60-79% damage) | 5 (5=80-100% damage) | 5 (5=80-100% damage)
5 | Cn1ncc(-c2cc(OC(F)(F)F)ccc2Cl)c(O)c1=O [Compound 1.100] | 2 (2=20-39% damage) | 1 (1=0-19% damage) | 1 (1=0-19% damage) | 1 (1=0-19% damage) | 1 (1=0-19% damage) | 1 (1=0-19% damage) | 1 (1=0-19% damage) | 2 (2=20-39% damage) | 1 (1=0-19% damage) | 1 (1=0-19% damage) | 1 (1=0-19% damage) | 2 (2=20-39% damage)
6 | CCOc1nn(C)c(=O)c(O)c1-c1ccc(C(F)(F)F)cc1S(C)(=O)=O [Compound 2.050] | 5 (5=80-100% damage) | 5 (5=80-100% damage) | 5 (5=80-100% damage) | 5 (5=80-100% damage) | 5 (5=80-100% damage) | 5 (5=80-100% damage) | 5 (5=80-100% damage) | 5 (5=80-100% damage) | 5 (5=80-100% damage) | 5 (5=80-100% damage) | 5 (5=80-100% damage) | 5 (5=80-100% damage)
7 | CCCS(=O)(=O)Oc1c(-c2ccc(C(F)(F)F)cc2S(C)(=O)=O)cnn(C)c1=O [Compound 3.005, [2-methyl-5-[2-methylsulfonyl-4-(trifluoromethyl)phenyl]-3-oxo-pyridazin-4-yl]propane-1-sulfonate] | 5 (5=80-100% damage) | 4 (4=60-79% damage) | 5 (5=80-100% damage) | 5 (5=80-100% damage) | 5 (5=80-100% damage) | 5 (5=80-100% damage) | 5 (5=80-100% damage) | 5 (5=80-100% damage) | 5 (5=80-100% damage) | 5 (5=80-100% damage) | 5 (5=80-100% damage) | 5 (5=80-100% damage)
8 | C=CCn1cccc(-c2cnn(C)c(=O)c2O)c1=O [Compound 9.002] | 4 (4=60-79% damage) | 1 (1=0-19% damage) | 1 (1=0-19% damage) | 1 (1=0-19% damage) | 1 (1=0-19% damage) | 2 (2=20-39% damage) | 2 (2=20-39% damage) | 2 (2=20-39% damage) | 1 (1=0-19% damage) | 1 (1=0-19% damage) | 1 (1=0-19% damage) | 5 (5=80-100% damage)
9 | Cn1ncc(-c2ccc(Cl)c(Cl)c2Cl)c(O)c1=O [Compound 1.091] | 1 (1=0-19% damage) | 1 (1=0-19% damage) | 1 (1=0-19% damage) | 1 (1=0-19% damage) | 1 (1=0-19% damage) | 1 (1=0-19% damage) | 1 (1=0-19% damage) | 1 (1=0-19% damage) | 1 (1=0-19% damage) | 1 (1=0-19% damage) | 1 (1=0-19% damage) | 2 (2=20-39% damage)
10 | CC[S+]([O-])c1ccccc1-c1cnn(C)c(=O)c1O (stereo not drawn) [Compound 1.041] | 5 (5=80-100% damage) | 1 (1=0-19% damage) | 4 (4=60-79% damage) | 2 (2=20-39% damage) | 3 (3=40-59% damage) | 5 (5=80-100% damage) | 5 (5=80-100% damage) | 5 (5=80-100% damage) | 2 (2=20-39% damage) | 4 (4=60-79% damage) | 4 (4=60-79% damage) | 5 (5=80-100% damage)
